Test results reported in patent publication US10124033B2, “Peptides and methods of use” (BAXALTA INCORPORATED, priority 2014, dated 2018).
Values belong to the compound of their own block, whether it stands above or below them. Non-standard residues stand in square brackets, D forms with d. Residues, ends and D or L forms follow the SMILES beside them. Tle = CC(C)(C)[C@H](N)C(=O)O

Key:
[1] = target: T1, Protein S/APC cofactor activity (Homo sapiens, UniProt P07225); assay: CAT assay in pooled normal plasma supplemented with 3 nM APC; assay type: biochemical; details: 6 pM TF, 15 μM phospholipids
T1 construct: host or cells: plasma
T1 sequence (P07225 41-676 limits assumed): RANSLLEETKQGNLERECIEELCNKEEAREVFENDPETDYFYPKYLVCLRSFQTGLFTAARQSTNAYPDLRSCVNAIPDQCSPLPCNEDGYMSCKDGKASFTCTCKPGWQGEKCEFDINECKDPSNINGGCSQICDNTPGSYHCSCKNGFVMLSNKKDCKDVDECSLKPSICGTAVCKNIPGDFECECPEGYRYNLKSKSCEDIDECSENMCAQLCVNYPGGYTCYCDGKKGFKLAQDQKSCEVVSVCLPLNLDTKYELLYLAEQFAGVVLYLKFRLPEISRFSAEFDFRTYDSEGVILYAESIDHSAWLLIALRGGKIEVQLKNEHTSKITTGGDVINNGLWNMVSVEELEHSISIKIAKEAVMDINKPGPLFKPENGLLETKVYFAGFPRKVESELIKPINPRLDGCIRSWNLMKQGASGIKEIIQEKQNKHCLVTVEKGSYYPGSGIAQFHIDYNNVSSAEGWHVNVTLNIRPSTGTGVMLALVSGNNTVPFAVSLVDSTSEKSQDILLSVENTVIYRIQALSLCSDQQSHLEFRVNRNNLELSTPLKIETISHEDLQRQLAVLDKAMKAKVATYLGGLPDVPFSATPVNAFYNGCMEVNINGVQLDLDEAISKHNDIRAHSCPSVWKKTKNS
Experimental: Peptides also were tested for improvement of Protein S/APC-dependent thrombin generation in hemophilic plasma using a CAT assay. Protein S enhances the anticoagulation of APC in plasma. The CAT assay quantifies the effect of Protein S on APC-mediated thrombin generation initiated via the extrinsic coagulation pathway (Nicolaes, Blood Coagul. Fibrinolysis, 8:28 (1997)). APC (35 nM) and Protein S (25 nM) was added to Protein 5-depleted plasma, and plasma samples were incubated with high titer heat inactivated anti-human FVIII plasma raised in goat (4490 BU/ml; Baxter BioScience, Vienna, Austria; 50 BU/ml final plasma concentration). Thrombin formation in plasma was followed by calibrated automated thrombography (CAT) in a Fluoroskan Ascent® reader (Thermo Labsystems, Helsinki, Finland) and quantified via the thrombin peak-height. Thrombin generation was determined at high tissue factor (TF) concentration in the absence and in the presence of APC at a concentration that reduces the peak height to 20%. The inhibitory effect of peptides described herein on the APC cofactor activity of Protein S (PS) in plasma was measured in FVIII-inhibited pooled normal plasma supplemented with APC. Complete (100%) Protein S/APC inhibition is the height of the thrombin peak without addition of APC. Lack of (0%) PS/APC inhibition correlates to the thrombin peak-height value with a certain amount of APC. Peptides were ranked by their normalized values in comparison to the mean of wild-type controls including SD at two defined peptide concentrations (EC50 and EC90). […] For the assays, pooled normal plasma was supplemented with 3 nM APC and triggered with 6 pM TF, and 15 μM phospholipids (DOPC/POPS 80/20). Stock APC was diluted with TF-PL-MIX to 24 nM (plasma concentration: 3 nM).

Protein S = target: T2, Protein S (Homo sapiens, UniProt P07225); assay: LANCE IC50 assay (competition TR-FRET) with tracer JBS0684; assay type: binding; details: Table 4, multiple substitutions in JBS2572; read-out: LANCE IC50
T2 sequence (P07225 41-676 limits assumed): T1 sequence (P07225 41-676 limits assumed)
Experimental: Peptides also were characterized in a competition, homogenous europium-based TR-FRET assay (LANCE IC50 assay) using JBS0684 as a tracer (i.e., competitor for Protein S binding). The following reagents were mixed together in a Perkin-Elmer ProxiPlate MTP well (indicated concentration is the final concentration): Eu-labeled Protein S (10 nM), Ulight™-labeled Streptavidin (100 nM), tracer (JBS0684 (300 nM)), and peptide (titrated in three-fold dilution steps). The final volume was 50 μl/well. The reaction mix was incubated for 1 hour at room temperature, then the fluorescence emission at 665 nm was recorded on a multi-mode reader (SpectraMax® M5, Molecular Devices) using the following instrument settings: Ex 340 nm, Em 665 nm, delay 50 μsec, integration 100 μsec, reads 100. Binding of tracer peptides to soluble europium-labeled Protein S was detected by Streptavidin labeled with an acceptor fluorophor (ULight™). Inhibition of tracer-binding to Protein S by a non-biotinylated peptide results in a decrease of TR-FRET between the Eu-labeled Protein S and ULight™-labeled Streptavidin. IC50 values were obtained from peptide titration curves at constant tracer concentration using non-linear regression of the fluorescence emission signals at 665 nm.

[2] = target: T3, human full-length Protein S (Homo sapiens, UniProt P07225); assay: Biacore (surface plasmon resonance) on immobilized Protein S; assay type: binding; details: Biacore
T3 construct: using human full-length Protein S and human GAS6
T3 sequence (P07225 41-676 limits assumed): T1 sequence (P07225 41-676 limits assumed)
Experimental: Protein S affinity also was determined via Biacore (Biacore 3000 or Biacore T200) using human full-length Protein S and human GAS6. Briefly, 1000 RU of Protein S or GAS6 were immobilized on a CMS chip. In order to probe the kinetics of Protein S binding peptides to Protein S, the peptides were injected at various concentrations in a HBS-buffer containing 3 mM CaCl2 and 1% DMSO to the flow cell and allowed to interact with the immobilized proteins on the sensor chip. The chip could be regenerated with 4 M MgCl2 in HBS-buffer. Sensorgrams were fitted to a Langmuir binding model for the determination of kon and koff and the calculation of KD. Peptides were tested on their specificity to Protein S with peptide binding studies on the anti-target GAS6.

[3] = plasma stability in mouse plasma; assay type: in vitro ADME; details: 37° C.
Experimental: (§1) Affinity and activity of all 18 peptides was improved compared to parent JBS2572. […] Activity and stability were improved up to 1.5-fold. Plasma stability was determined in pooled normal human plasma and mouse plasma at 37° C.; exemplary results also are provided in Table 3.

thrombin generation = thrombin generation in non-human mammals; assay type: biochemical; details: cynomolgous monkey, marmoset monkey, pig, sheep, dog, rabbit, rat, and mouse
C4BP/PS complex = target: T4, C4BP/PS complex (Homo sapiens, UniProt P07225); assay: LANCE IC50 assay on preformed C4BP/PS complex; assay type: binding; details: two hours of incubation, 100 nM peptide
T4 sequence (P07225 41-676 limits assumed): T1 sequence (P07225 41-676 limits assumed)
Experimental: To investigate the effect of the peptides described herein on PS/C4BP complexes, a LANCE IC50 assay was established using methods similar to those described above. JBS2572 or JBS3216 was added to a preformed C4BP/PS complex. Changes in the complex concentration were followed by recording the TR-FRET signal. For both peptides, a time- and concentration-dependent dissociation of the C4BP/PS complex was observed. The IC50 of JBS3216 was 0.3 nM, and the IC50 of JBS2572 was 2 nM. The time-dependency of the complex reduction was similar for both peptides. After two hours of incubation in the presence of 100 nM JBS2572 or JBS3216, the C4BP/PS complex was reduced to 60% and 50%, respectively. In addition, binding of biotinylated JBS2572 to Protein S was inhibited by C4BP in the LANCE IC50 assay. Pull-down experiments where JBS2697 was coupled to streptavidin sepharose and incubated for one hour at room temperature with (a) Protein S (1.6 pmol) (b) C4BP (8.5 pmol) and (c) Protein S (1.6 pmol)+C4BP (8.5 pmol) supported the results from the modified LANCE IC50 assay.

[4] = system: Protein S/APC dependent thrombin generation; assay: CAT assay in plasmas from individuals with severe hemophilia A; assay type: biochemical, human; details: plasma of severe hemophilia A patients
[5] = plasma stability in pooled normal human plasma; assay type: in vitro ADME
Experimental: as §1

EC50 [1]: 155 nM
IC50 (Protein S): 2.2 nM
SMILES: CSCC[C@H](NC(=O)[C@H](Cc1ccc(O)cc1)NC(=O)[C@H](Cc1c[nH]cn1)NC(=O)[C@H](CC(=O)O)NC(=O)[C@H](Cc1ccccc1)NC(=O)[C@H](CC(N)=O)NC(=O)[C@H](Cc1ccc(O)cc1)NC(=O)[C@H](CC(=O)O)NC(=O)[C@H](Cc1ccc(O)cc1)NC(=O)[C@H](Cc1c[nH]c2ccccc12)NC(=O)CNC(=O)[C@H](C)NC(=O)[C@H](CO)NC(=O)[C@@H](NC(=O)[C@H](CC(C)C)NC(=O)CNC(=O)[C@H](Cc1ccc(O)cc1)NC(C)=O)C(C)C)C(=O)N[C@@H](CCC(=O)O)C(=O)N[C@@H](Cc1ccccc1)C(=O)N[C@H](C(N)=O)[C@@H](C)O [JBS3196] (Ac-YGLVSAGWYDYNFDHYMEFT-NH2)

koff ([2]; Table 3, read-out: koff): 0.000233 s⁻¹
kon ([2]; Table 3, read-out: kon): 1.14e+06 M⁻¹ s⁻¹
Kd ([2]; affinity-matured and modified peptides, read-out: KD): 0.2 nM
Stability in mouse plasma; 4 hours [%] [3]: 66 ± 23%
C4BP/PS complex reduced to (C4BP/PS complex): 50%
EC50 [4]: 85 nM
binding activity remaining after incubation in human plasma ([5]; 24 hours of incubation in human plasma): 50%
Stability in human plasma; 6 hours [%] ([5]; pooled normal human plasma, 37° C., 6 hours): 80 ± 2%
SMILES: CC(=O)N[C@@H](CCC(=O)O)C(=O)N[C@@H](Cc1ccc(O)cc1)C(=O)N[C@@H](Cc1ccc(O)cc1)C(=O)N[C@H](C(=O)N[C@@H](CO)C(=O)N[C@@H](C)C(=O)NCC(=O)N[C@@H](Cc1c[nH]c2ccccc12)C(=O)N[C@@H](Cc1ccc(O)cc1)C(=O)N[C@@H](CC(=O)O)C(=O)N[C@@H](Cc1ccc(O)cc1)C(=O)N[C@@H](CC(N)=O)C(=O)N[C@H](C(=O)N[C@@H](CC(=O)O)C(=O)N[C@H](C(=O)N[C@@H](Cc1ccc(O)cc1)C(=O)N[C@@H](Cc1ccc(O)cc1)C(=O)N[C@@H](CCC(=O)O)C(=O)N[C@@H](Cc1ccccc1)C(=O)N[C@@H](CCC(=O)O)C(N)=O)[C@@H](C)O)[C@@H](C)O)C(C)C [JBS3216] (Ac-EYYVSAGWYDYNTDTYYEFE-NH2)
thrombin generation in non-human mammals (thrombin generation): improved thrombin generation

EC50 [1]: 127 nM
IC50 (Protein S): 1.9 nM
SMILES: CSCC[C@H](NC(=O)[C@H](Cc1ccc(O)cc1)NC(=O)[C@@H](NC(=O)[C@H](CC(=O)O)NC(=O)[C@H](CC(N)=O)NC(=O)[C@H](CC(N)=O)NC(=O)[C@H](Cc1ccc(O)cc1)NC(=O)[C@H](CC(=O)O)NC(=O)[C@H](Cc1ccc(O)cc1)NC(=O)[C@H](Cc1c[nH]c2ccccc12)NC(=O)CNC(=O)[C@H](C)NC(=O)[C@H](CCC(=O)O)NC(=O)[C@@H](NC(=O)[C@H](CC(C)C)NC(=O)CNC(=O)[C@H](Cc1ccc(O)cc1)NC(C)=O)C(C)C)[C@@H](C)O)C(=O)N[C@@H](CCC(=O)O)C(=O)N[C@@H](Cc1ccccc1)C(=O)N[C@H](C(N)=O)[C@@H](C)O [JBS3201] (Ac-YGLVEAGWYDYNNDTYMEFT-NH2)

EC50 [1]: 127 nM
IC50 (Protein S): 1.8 nM
SMILES: CSCC[C@H](NC(=O)[C@H](Cc1ccc(O)cc1)NC(=O)[C@H](Cc1c[nH]cn1)NC(=O)[C@H](CC(=O)O)NC(=O)[C@H](Cc1ccccc1)NC(=O)[C@H](CC(N)=O)NC(=O)[C@H](Cc1ccc(O)cc1)NC(=O)[C@H](CC(=O)O)NC(=O)[C@H](Cc1ccc(O)cc1)NC(=O)[C@H](Cc1c[nH]c2ccccc12)NC(=O)CNC(=O)[C@H](C)NC(=O)[C@H](CO)NC(=O)[C@@H](NC(=O)[C@H](CC(C)C)NC(=O)CNC(=O)[C@@H](NC(C)=O)[C@@H](C)O)C(C)(C)C)C(=O)N[C@@H](CCC(=O)O)C(=O)N[C@@H](Cc1ccccc1)C(=O)N[C@H](C(N)=O)[C@@H](C)O [JBS3203, Ac-TGL-Tle-SAGWYDYNFDHYMEFT-NH2] (Ac-TGL[Tle]SAGWYDYNFDHYMEFT-NH2)
